What was measured:
[1] = biological target: human recombinant sGC enzyme (Homo sapiens (Human), UniProt Q02108+Q02153); assay: Size Exclusion Chromatography (SEC) competition binding assay using [3H] Ex-77B as the radioligand; conditions: [3H] Ex-77B radioligand, 24 hours at 37° C.
Procedure, shortened: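 Recombinant human sGC binding measured by competition against tritiated Ex-77B radioligand, with non-specific binding defined by 1 μM unlabeled Ex-77B.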

sGC α1/β1 heterodimer = sGC α1/β1 heterodimer (Homo sapiens (Human), UniProt Q02108+Q02153); assay: Cell-based sGC functional assay (cyclic GMP assay for sGC activator: CASA assay); conditions: CHO-K1/sGC cells; for Emax: CHO-K1, activity expressed as percentage of compound A (standard), read-out: % Activation; for EC50: inflection point, 4P fit, read-out: IP
Procedure, shortened: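 CHO-K1 cells stably expressing human sGC α1/β1 were pre-incubated 30 min at 25° C with or without 1 μM DETA-NO, then exposed to compound for 1 hr at 37° C with 0.5 mM IBMX and 2.5% DMSO final. Intracellular cGMP was measured by HTRF, expressed as % of reference sGC-HDA maximum; inflection point and maximum fold induction came from 4-parameter fits.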

Ki [1] [nM]	Emax (sGC α1/β1 heterodimer) [%]	EC50 (sGC α1/β1 heterodimer) [nM]	Compound
0.125	113	221	CC(C)(Cc1coc(C2(C)C(=O)Nc3nc(-c4nn(CC5CCCCC5)c5cc(Cl)ccc45)nc(N)c32)n1)C(=O)O (stereo not drawn) [Example 159A, 3-(2-{4-amino-2-[6-chloro-1-(cyclohexylmethyl)-1H-indazol-3-yl]-5-methyl-6-oxo-6,7-dihydro-5H-pyrrolo[2,3-d]pyrimidin-5-yl}-1,3-oxazol-4-yl)-2,2-dimethyl-propanoic acid]
0.081	121	291	CC(C)(Cc1coc(C2(C)C(=O)Nc3nc(-c4nn(CC5CCCC5)c5cc(Cl)ccc45)nc(N)c32)n1)C(=O)O (stereo not drawn) [Example 161A, 3-(2-{4-amino-2-[6-chloro-1-(cyclopentylmethyl)-1H-indazol-3-yl]-5-methyl-6-oxo-6,7-dihydro-5H-pyrrolo[2,3-d]pyrimidin-5-yl}-1,3-oxazol-4-yl)-2,2-dimethyl-propanoic acid]
0.15	76.5	69	CC(C)(Cc1csc([C@]2(C)C(=O)Nc3nc(-c4nn(CC5CCCC5)c5cc(Cl)ccc45)nc(N)c32)n1)C(=O)O [Example 162A, (S)-3-(2-{4-amino-2-[6-chloro-1-(cyclopentyl-methyl)-1H-indazol-3-yl]-5-methyl-6-oxo-6,7-dihydro-5H-pyrrolo[2,3-d]pyrimidin-5-yl}-1,3-thiazol-4-yl)-2,2-dimethyl-propanoic acid]
0.099	127	439	CC1(c2nc(-c3ccc(C(=O)O)cc3)co2)C(=O)Nc2nc(-c3nn(Cc4ccccc4F)c4cc(Cl)ccc34)nc(N)c21 (stereo not drawn) [Example 164A, 4-(2-{4-amino-2-[6-chloro-1-(2-fluorobenzyl)-1H-indazol-3-yl]-5-methyl-6-oxo-6,7-dihydro-5H-pyrrolo[2,3-d]pyrimidin-5-yl}-1,3-oxazol-4-yl) benzoic acid]
0.081	110	48	CC1(c2nc(-c3ccc(C(=O)O)cc3)cs2)C(=O)Nc2nc(-c3nn(Cc4ccccc4F)c4cc(Cl)ccc34)nc(N)c21 (stereo not drawn) [Example 165A, 4-(2-{4-amino-2-[6-chloro-1-(2-fluorobenzyl)-1H-indazol-3-yl]-5-methyl-6-oxo-6,7-dihydro-5H-pyrrolo[2,3-d]pyrimidin-5-yl}-1,3-thiazol-4-yl) benzoic acid]
0.07	107	93	CC(C)(CCc1coc(C2(C)C(=O)Nc3nc(-c4nn(Cc5ccccc5F)c5cc(Cl)ccc45)nc(N)c32)n1)C(=O)O (stereo not drawn) [Example 167B, 4-(2-{4-amino-2-[6-chloro-1-(2-fluorobenzyl)-1H-indazol-3-yl]-5-methyl-6-oxo-6,7-dihydro-5H-pyrrolo[2,3-d]pyrimidin-5-yl}-1,3-oxazol-4-yl)-2,2-dimethyl-butanoic acid]
0.164	141	207	CC1(c2nc3cc(C(=O)O)ccc3o2)C(=O)Nc2nc(-c3nn(Cc4ccccc4F)c4cc(Cl)ccc34)nc(N)c21 (stereo not drawn) [Example 168B, 2-{4-amino-2-[6-chloro-1-(2-fluorobenzyl)-1H-indazol-3-yl]-5-methyl-6-oxo-6,7-dihydro-5H-pyrrolo[2,3-d]pyrimidin-5-yl}-1,3-benzoxazole-5-carboxylic acid]
0.104	90.3	159	CC1(c2cccc(C(=O)O)c2)C(=O)Nc2nc(-c3nn(Cc4ccccc4F)c4cc(Cl)ccc34)nc(N)c21 (stereo not drawn) [Example 169B, 3-{4-amino-2-[6-chloro-1-(2-fluorobenzyl)-1H-indazol-3-yl]-5-methyl-6-oxo-6,7-dihydro-5H-pyrrolo[2,3-d]pyrimidin-5-yl} benzoic acid]
0.118	130	655	Cc1oc(C2(C)C(=O)Nc3nc(-c4nn(Cc5ccccc5F)c5cc(Cl)ccc45)nc(N)c32)nc1CC(C)(C)C(=O)O (stereo not drawn) [Example 170B, 3-(2-{4-amino-2-[6-chloro-1-(2 fluorobenzyl)-1H-indazol-3-yl]-5-methyl-6-oxo-6,7-dihydro-5H-pyrrolo[2,3-d]pyrimidin-5-yl}-5-methyl-1,3-oxazol-4-yl)-2,2-dimethylpropanoic acid]
0.094	135	1220	CC(C)(Cn1cc(C2(C)C(=O)Nc3nc(-c4nn(Cc5ccccc5F)c5cc(Cl)ccc45)nc(N)c32)cn1)C(=O)O (stereo not drawn) [Example 171A, 3-(4-{4-amino-2-[6-chloro-1-(2-fluorobenzyl)-1H-indazol-3-yl]-5-methyl-6-oxo-6,7-dihydro-5H-pyrrolo[2,3-d]pyrimidin-5-yl}-1H-pyrazol-1-yl)-2,2-dimethyl-propanoic acid]
0.252	83.4	557	CC(C)(Cc1coc(C2(C)C(=O)Nc3nc(-c4nn(Cc5ccc(F)cc5)c5cc(Cl)ccc45)nc(N)c32)n1)C(=O)O (stereo not drawn) [Example 173A, 3-(2-{4-amino-2-[6-chloro-1-(4-fluorobenzyl)-1H-indazol-3-yl]-5-methyl-6-oxo-6,7-dihydro-5H-pyrrolo[2,3-d]pyrimidin-5-yl}-1,3-oxazol-4-yl)-2,2-dimethyl-propanoic acid]
0.173	121	682	CC(C)(Cc1csc([C@]2(C)C(=O)Nc3nc(-c4nn(Cc5ccc(F)cc5)c5cc(Cl)ccc45)nc(N)c32)n1)C(=O)O [Example 174A, (S)-3-(2-{4-amino-2-[6-chloro-1-(4-fluorobenzyl)-1H-indazol-3-yl]-5-methyl-6-oxo-6,7-dihydro-5H-pyrrolo[2,3-d]pyrimidin-5-yl}-1,3-thiazol-4-yl)-2,2-dimethyl-propanoic acid]
0.151	139	96	CC(C)(Cc1coc(C2(C)C(=O)Nc3nc(-c4nn(Cc5cccc(F)c5)c5cc(Cl)ccc45)nc(N)c32)n1)C(=O)O (stereo not drawn) [Example 175A, 3-(2-{4-amino-2-[6-chloro-1-(3-fluorobenzyl)-1H-indazol-3-yl]-5-methyl-6-oxo-6,7-dihydro-5H-pyrrolo[2,3-d]pyrimidin-5-yl}-1,3-oxazol-4-yl)-2,2-dimethyl-propanoic acid]
0.13	118	1470	Cc1oc(C2(C)C(=O)Nc3nc(-c4nn(Cc5cccc(F)c5)c5cc(Cl)ccc45)nc(N)c32)nc1CC(C)(C)C(=O)O (stereo not drawn) [Example 176B, 3-(2-{4-amino-2-[6-chloro-1-(3-fluorobenzyl)-1H-indazol-3-yl]-5-methyl-6-oxo-6,7-dihydro-5H-pyrrolo[2,3-d]pyrimidin-5-yl}-5-methyl-1,3-oxazol-4-yl)-2,2-dimethyl-propanoic acid]
0.118	126	351	CC(C)(CCc1coc(C2(C)C(=O)Nc3nc(-c4nn(Cc5cccc(F)c5)c5cc(Cl)ccc45)nc(N)c32)n1)C(=O)O (stereo not drawn) [Example 177B, 4-(2-{4-amino-2-[6-chloro-1-(3-fluorobenzyl)-1H-indazol-3-yl]-5-methyl-6-oxo-6,7-dihydro-5H-pyrrolo[2,3-d]pyrimidin-5-yl}-1,3-oxazol-4-yl)-2,2-dimethyl-butanoic acid]
0.116	124	429	CC(C)(Cc1coc(C2(C)C(=O)Nc3nc(-c4nn(Cc5ccc(F)cc5F)c5cc(Cl)ccc45)nc(N)c32)n1)C(=O)O (stereo not drawn) [Example 178A, 3-(2-{4-amino-2-[6-chloro-1-(2,4-difluorobenzyl)-1H-indazol-3-yl]-5-methyl-6-oxo-6,7-dihydro-5H-pyrrolo[2,3-d]pyrimidin-5-yl}-1,3-oxazol-4-yl)-2,2-dimethyl-propanoic acid]
0.144	118	262	CC(C)(Cc1csc([C@]2(C)C(=O)Nc3nc(-c4nn(Cc5ccc(F)cc5F)c5cc(Cl)ccc45)nc(N)c32)n1)C(=O)O [Example 179A, (S)-3-(2-{4-amino-2-[6-chloro-1-(2,4-difluorobenzyl)-1H-indazol-3-yl]-5-methyl-6-oxo-6,7-dihydro-5H-pyrrolo[2,3-d]pyrimidin-5-yl}-1,3-thiazol-4-yl)-2,2-dimethyl-propanoic acid]
0.031	121	228	CC(C)(Cc1coc(C2(C)C(=O)Nc3nc(-c4nn(Cc5cccc(F)c5F)c5cc(Cl)ccc45)nc(N)c32)n1)C(=O)O (stereo not drawn) [Example 180A, 3-(2-{4-amino-2-[6-chloro-1-(2,3-difluorobenzyl)-1H-indazol-3-yl]-5-methyl-6-oxo-6,7-dihydro-5H-pyrrolo[2,3-d]pyrimidin-5-yl}-1,3-oxazol-4-yl)-2,2-dimethyl-propanoic acid]
0.094	112	278	CC(C)(Cc1csc([C@]2(C)C(=O)Nc3nc(-c4nn(Cc5cccc(F)c5F)c5cc(Cl)ccc45)nc(N)c32)n1)C(=O)O [Example 181A, (S)-3-(2-{4-amino-2-[6-chloro-1-(2,3-difluorobenzyl)-1H-indazol-3-yl]-5-methyl-6-oxo-6,7-dihydro-5H-pyrrolo[2,3-d]pyrimidin-5-yl}-1,3-thiazol-4-yl)-2,2-dimethyl-propanoic acid]
0.124	92	238	CC(C)(Cc1coc(C2(C)C(=O)Nc3nc(-c4nn(Cc5c(F)cccc5F)c5cc(Cl)ccc45)nc(N)c32)n1)C(=O)O (stereo not drawn) [Example 182A, 3-(2-{4-amino-2-[6-chloro-1-(2,6-difluorobenzyl)-1H-indazol-3-yl]-5-methyl-6-oxo-6,7-dihydro-5H-pyrrolo[2,3-d]pyrimidin-5-yl}-1,3-oxazol-4-yl)-2,2-dimethyl-propanoic acid]

— patent US10030027B2, “Soluble guanylate cyclase stimulators” (MERCK SHARP & DOHME CORP., priority 2015, dated 2018)
